Here are results for two compounds from patent publication US20120100204A1, “TGF-Beta Stimulating Agent Compositions and Combinations” (TCP INNOVATIONS LTD, priority 2007, published 2012).

Marks after values point to notes of the source that are not given here. Bounds are passed on as bounds.

For one assay, the system named is tgfb2 mRNA. The experiment in a line: tgfb2 mRNA level by quantitative PCR in human aortic vascular smooth muscle cells. Type of assay: cell-based. The settings on record: 24 hrs. The method, then:
(1995) Cardiovasc. Res. 29:848-55). […] The cells were then incubated for either 24 hrs or 72 hrs depending on the experiment. All treatment conditions were established in triplicate. The level of mRNA for tgfb1, tgfb2 and tgfb3 were estimated by quantitative PCR. The media was removed and RNA was carefully prepared using the Ambion RNAqueous4PCR kit (Ambion#1914) in accordance with the manufacturer's instructions. The purity of the RNA and the quantity was assessed spectrophotometrically. […] This analysis results in both a gel-like image as well as electrophoretic data. Indications of RNA degradation are: (a) decreasing ratio of ribosomal bands (b) additional peaks bellow the ribosomal bands (c) Decrease in overall RNA signal (d) shift towards shorter fragments. […] Next, the RNA was converted to cDNA using the ABI High-Capacity cDNA Archive Kit, in accordance with manufacturer's instructions. […] Samples were vortexed to ensure thorough mixing. cDNA was aliquoted into ABI 384 well plates using a multi-channel pipette, 4.5 μl of sample into each well. Samples were assayed in triplicate (that is, nine determinations in total were made for each condition, being three separate assays on each of three replicate culture wells). The assay mix and Universal Master Mix were prepared and aliquoted across the 384 well plates 5.5 μl in each well, using a single channel pipette. […] Universal Master Mix=5 μl; cDNA=4.5 μl. […] Quantitative PCR was performed using several primer/probe sets. […] In all quantitative PCR experiments, several additional controls were included: firstly, a control for each sample is run with no reverse transcription to ensure the mRNA sample is not contaminated with genomic DNA (although the manual design probe/primer sets were all selected to cross an exon/exon boundary, ensuring no detectable amplicon is produced from genomic DNA templates). […]

Assay [1] concerns anti-collagen type II antibodies. Briefly: direct ELISA for anti-collagen type II antibodies in serum of collagen-induced arthritis mice. The assay is classed as in vivo. The settings on record: day 39. As to the method: Collagen-induced arthritis was induced in adult male DBA/1 mice as previously described (Courtenay et al. (1980) Nature 283:666-8). Adult (12 week old) male DBA/1 mice were divided into groups of six animals. Mice received 100 μg per mouse of bovine type II collagen (Sigma) in Freunds Complete Adjuvant (FCA) by the subcutaneous route, while a control group received an identical injection of type I collagen in FCA. Twenty-one days later, all groups of mice received an intraperitoneal booster injection containing 100 μg per mouse of the same collagen type as previously, but in the absence of adjuvant. […] Foodpad thickness was determined each day using a digital caliper EC1507 (Moore & Wright) accurate to 0.01 mm. The thickness of each footpad was determined three times on each day by a single operator blind to the treatment condition of the mouse, and the footpad thickness of each mouse on each day was reported as the mean for the three measurements for all four paws. Errors represent the standard error of the mean among the six animals in each group.
A direct ELISA for anti-collagen type II antibodies was used as an alternative assessment of the autoimmune response. Bovine type II collagen was coated onto Maxisorp 96-well ELISA plate wells (Nunc) at 1 μg/well in 50 μl of 50 mM sodium carbonate pH9.0 for 2 hours at 4° C. Wells were blocked with 5% Tween-20/5% sucrose in phosphate-buffered saline for 1 hour at room temperature. Mouse serum at various dilutions was incubated with the collagen-coated wells for 2 hours at room temperature. After three quick washes with tris-buffered saline +0.05% Tween-20, bound murine antibody was detected using a range of different anti-mouse IgG peroxidase conjugates (Pan-IgG A-9174 Sigma Chemical Co; IgA A-4789 Sigma Chemical Company; IgG1, G2a, G2b and G3 Southern Biotechnology) at 1:5000 dilution in tris-buffered saline +0.05% Tween-20 for 1 hour at room temperature. After three further washes, bound peroxidase label was visualised with K-BLUE chromogenic substrate (Skybio, Ltd.) for 20 minutes at room temperature, and the concentration of murine anti-collagen IgG in the serum quantitated by interpolating a standard curve constructed using known concentrations of the murine monoclonal anti-collagen type II IgG, CIICI (NIH Developmental Studies Hybridoma Bank).

For assay [2] the following is noted: Tamoxifen treatment; cited from earlier work.

With `CC(=O)Oc1ccccc1C(=O)O` [Aspirin, acetylsalicylic acid], the “Level of mRNA, estimated by qPCR: tgfb2” value with tgfb2 mRNA (10 μM A) is reported as 0.92 ± 0.10 fold-change; in the assay with tgfb2 mRNA (33 μM A) it was 1.00 ± 0.17 fold-change; in the assay with tgfb2 mRNA (100 μM A), 1.03 ± 0.16 fold-change.

Consider `CC/C(=C(\c1ccccc1)c1ccc(OCCN(C)C)cc1)c1ccccc1` [Tamoxifen], for which the “Pan IgG binding to bovine collagen II, median concentration in serum” value in assay [1] (DBA/1 mice with collagen-induced arthritis) came out at 181 µg/mL. In addition, in assay [1] (neat serum), the “IgG1 binding to bovine collagen II, median absorbance” value is <0.05*; the “IgG2a binding to bovine collagen II, median absorbance” value is reported as 0.081*; the “IgG2b binding to bovine collagen II, median absorbance” value was 0.482*; the “IgG3 binding to bovine collagen II, median absorbance” value is given as 0.069*. Moreover, the “endothelial function, a surrogate marker of atherosclerotic disease burden” value in assay [2] is “improved endothelial function”.
